Consider 21 molecules from patent publication US20100286145A1, “ISOPHTHALAMIDE DERIVATIVES INHIBITING BETA-SECRETASE ACTIVITY” (CoMentis, Inc., priority 2007, published 2010).

pIC50, pKi: −log10 of the molar value. Read-outs that look alike come from different tables or passages of the source.

For one assay, the target named is memapsin 2 (Homo sapiens, UniProt P56817). In words: Inhibition of memapsin 2 beta-secretase activity (fluorogenic substrate FS-2). It counts as biochemical. To be noted: memapsin 2, pH 4, 37° C., read-out: M2Ki. The method, boiled down: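 Memapsin 2 pre-incubated 20 min with compound at pH 4, 37° C, then FS-2 substrate (MCA-SEVNLDAEFK-DNP, APP Swedish cleavage site) added. Rate of fluorescence increase compared with uninhibited controls, fitted to a tight-binding inhibition model.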

In assay [1] the test system is Aβ production in Chinese hamster ovary cells that over-express human APP695 with the London and Swedish mutations. In words: Cellular Aβ IC50 determination (Aβ40 sandwich ELISA). It counts as cell-based. To be noted: Cricetulus griseus. A digest of the protocol:
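CHO cells overexpressing human APP695 with London and Swedish mutations, seeded at 10% confluency, treated with compounds up to about 4 μM final (0.4% DMSO). Secreted Aβ40 measured by sandwich ELISA relative to control and fitted to a 4-parameter IC50 model.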

The mark [2] stands for this setting: cellular Aβ production, read-out: IC50.

memapsin 2, sequence (P56817 46-501): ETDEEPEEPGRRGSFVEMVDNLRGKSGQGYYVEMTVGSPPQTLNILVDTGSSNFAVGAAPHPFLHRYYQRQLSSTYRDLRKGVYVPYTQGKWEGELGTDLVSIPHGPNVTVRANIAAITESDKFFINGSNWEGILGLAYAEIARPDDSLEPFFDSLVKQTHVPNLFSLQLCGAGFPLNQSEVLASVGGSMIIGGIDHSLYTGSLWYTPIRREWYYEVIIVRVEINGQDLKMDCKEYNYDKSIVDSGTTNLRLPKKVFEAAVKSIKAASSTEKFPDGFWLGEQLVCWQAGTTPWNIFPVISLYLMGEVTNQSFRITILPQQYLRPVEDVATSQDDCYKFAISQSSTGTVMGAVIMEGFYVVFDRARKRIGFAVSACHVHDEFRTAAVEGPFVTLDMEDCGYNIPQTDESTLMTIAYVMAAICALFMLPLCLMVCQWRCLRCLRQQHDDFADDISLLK

For `Cc1csc(CN(C)C(=O)c2cccc(C(=O)N[C@@H](Cc3ccccc3)[C@H](O)CNCc3cccc(C(C)(F)F)c3)c2)n1` [Compound 145, N1-((2S,3R)-4-(3-(1,1-difluoroethyl)benzylamino)-3-hydroxy-1-phenylbutan-2-yl)-N3-methyl-N3-((4-methylthiazol-2-yl)methyl)isophthalamide], on memapsin 2 (20 minutes pre-incubation), the pKi was above 6.52. For the same molecule, the pIC50 in assay [1] (setting [2]) was above 6.00.

Consider `COc1cccc(CNC[C@@H](O)[C@H](Cc2ccccc2)NC(=O)c2cccc(C(=O)N(C)Cc3ncc(C)s3)c2)c1` [Compound 6, N1-((2S,3R)-3-hydroxy-4-(3-methoxybenzylamino)-1-phenylbutan-2-yl)-N3-methyl-N3-((5-methylthiazol-2-yl)methyl)isophthalamide], for which the pKi on memapsin 2 (20 minutes pre-incubation) was below 6.30. The pIC50 in assay [1] (setting [2]) is below 5.30.

Turning to `COc1cccc(CNC[C@@H](O)[C@H](Cc2ccccc2)NC(=O)c2cc(OS(C)(=O)=O)cc(C(=O)N[C@H](C)c3ccccc3)c2)c1` [Compound 70, 3-((2S,3R)-3-hydroxy-4-(3-methoxybenzylamino)-1-phenylbutan-2-ylcarbamoyl)-5-((R)-1-phenylethylcarbamoyl)phenyl methanesulfonate], the pKi on memapsin 2 (20 minutes pre-incubation) is above 6.52. For the same molecule, in assay [1] (setting [2]), the pIC50 was above 6.00.

With `CNc1cccc(CNC[C@@H](O)[C@H](Cc2ccccc2)NC(=O)c2cccc(C(=O)N(C)Cc3nc(C)cs3)c2)c1` [Compound 167, N1-((2S,3R)-3-hydroxy-4-(3-(methylamino)benzylamino)-1-phenylbutan-2-yl)-N3-methyl-N3-((4-methylthiazol-2-yl)methyl)isophthalamide], the pKi on memapsin 2 (20 minutes pre-incubation) was above 6.52. Besides, in assay [1] (setting [2]), the pIC50 is above 6.00.

`CNC(=O)c1cc(C(=O)N[C@@H](Cc2ccccc2)[C@H](O)CNCc2cccc(OC)c2)cc(C(=O)N(C)Cc2nc(C)cs2)c1` [Compound 98, N1-((2S,3R)-3-hydroxy-4-(3-methoxybenzylamino)-1-phenylbutan-2-yl)-N3,N5-dimethyl-N3-((4-methylthiazol-2-yl)methyl)benzene-1,3,5-tricarboxamide]: at memapsin 2 (20 minutes pre-incubation), the pKi was above 6.52. In addition, in assay [1] (setting [2]), the pIC50 is 5.30 to 6.00.

In the case of `COc1cccc(CNC[C@@H](O)[C@H](Cc2ccccc2)NC(=O)c2cc(C(N)=O)cc(C(=O)N(C)Cc3nc(C)cs3)c2)c1` [Compound 103, N1-((2S,3R)-3-hydroxy-4-(3-methoxybenzylamino)-1-phenylbutan-2-yl)-N3-methyl-N3-((4-methylthiazol-2-yl)methyl)benzene-1,3,5-tricarboxamide], on memapsin 2 (20 minutes pre-incubation), the pKi was above 6.52. The pIC50 in assay [1] (setting [2]) is above 6.00.

With `COP(=O)(OC)Oc1cc(CNC[C@@H](O)[C@H](Cc2ccccc2)NC(=O)c2cccc(C(=O)N(C)Cc3nc(C)cs3)c2)cc(C(C)C)c1` [Compound 255, 3-(((2R,3S)-2-hydroxy-3-(3-(methyl((4-methylthiazol-2-yl)methyl)carbamoyl)benzamido)-4-phenylbutylamino)methyl)-5-isopropylphenyl dimethyl phosphate], at memapsin 2 (fluorogenic substrate FS-2), the pKi is above 6.52. In addition, the negative logarithm of the IC50 (pIC50) in assay [1] was above 6.00.

Regarding `COc1cccc(CNC[C@@H](O)[C@H](Cc2ccccc2)NC(=O)c2cc(C(=O)N(C)Cc3nc(C)cs3)cc(C(C)(C)C)c2)c1` [Compound 2, 5-tert-butyl-N1-((2S,3R)-3-hydroxy-4-(3-methoxybenzylamino)-1-phenylbutan-2-yl)-N3-methyl-N3-((4-methylthiazol-2-yl)methyl)isophthalamide], the pKi at memapsin 2 (20 minutes pre-incubation) is above 6.52. The pIC50 in assay [1] (setting [2]) was above 6.00.

For `COc1cccc([C@H](C)NC[C@@H](O)[C@H](Cc2ccccc2)NC(=O)c2cc(C(=O)N(C)Cc3nc(C)cs3)cc(N(C)C)c2)c1` [Compound 260, 5-(dimethylamino)-N1-((2S,3R)-3-hydroxy-4-((S)-1-(3-methoxyphenyl)ethylamino)-1-phenylbutan-2-yl)-N3-methyl-N3-((4-methylthiazol-2-yl)methyl)isophthalamide], the pKi at memapsin 2 (fluorogenic substrate FS-2) was 6.30 to 6.52. For the same molecule, the negative-log IC50 (pIC50) in assay [1] (setting [2]) is above 6.00.

Consider `COc1cccc(CNC[C@@H](O)[C@H](Cc2ccccc2)NC(=O)c2cccc(C(=O)N(C)Cc3ccc(C)o3)c2)c1` [Compound 18, N1-((2S,3R)-3-hydroxy-4-(3-methoxybenzylamino)-1-phenylbutan-2-yl)-N3-methyl-N3-((5-methylfuran-2-yl)methyl)isophthalamide], for which the pKi at memapsin 2 (20 minutes pre-incubation) was 6.30 to 6.52. In assay [1] (setting [2]), the pIC50 was above 6.00.

As for `Cc1csc(CN(C)C(=O)c2cccc(C(=O)N[C@@H](Cc3ccccc3)[C@H](O)CNCc3cc(C(C)C)ccn3)c2)n1` [Compound 5, N1-((2S,3R)-3-hydroxy-4-((4-isopropylpyridin-2-yl)methylamino)-1-phenylbutan-2-yl)-N3-methyl-N3-((4-methylthiazol-2-yl)methyl)isophthalamide], the pKi on memapsin 2 (20 minutes pre-incubation) was above 6.52. Also, in assay [1] (setting [2]), the pIC50 was above 6.00.

Turning to `Cc1csc(CN(C)C(=O)c2cc(C(=O)N[C@@H](Cc3ccccc3)[C@H](O)CNCc3cncc(C(C)(C)F)c3)cc(C(C)C)c2)n1` [Compound 277, N1-((2S,3R)-4-((5-(2-fluoropropan-2-yl)pyridin-3-yl)methylamino)-3-hydroxy-1-phenylbutan-2-yl)-5-isopropyl-N3-methyl-N3-((4-methylthiazol-2-yl)methyl)isophthalamide], the pKi at memapsin 2 (fluorogenic substrate FS-2) is above 6.52. In assay [1] (setting [2]), the pIC50 is above 6.00.

As to `CCN(CC)c1cc(C(=O)N[C@@H](Cc2ccccc2)[C@H](O)CNCc2cncc(C(C)C)c2)cc(C(=O)N(C)Cc2nc(C)cs2)c1` [Compound 172, 5-(diethylamino)-N1-((2S,3R)-3-hydroxy-4-((5-isopropylpyridin-3-yl)methylamino)-1-phenylbutan-2-yl)-N3-methyl-N3-((4-methylthiazol-2-yl)methyl)isophthalamide], the pKi on memapsin 2 (20 minutes pre-incubation) was above 6.52. Further, the pIC50 in assay [1] (setting [2]) was above 6.00.

Turning to `Cc1csc(CNC(=O)c2cccc(C(=O)N[C@@H](Cc3ccccc3)[C@H](O)CNCc3cc(C(C)C)c(C)nc3C)c2)n1` [Compound 93, N1-((2S,3R)-3-hydroxy-4-((5-isopropyl-2,6-dimethylpyridin-3-yl)methylamino)-1-phenylbutan-2-yl)-N3-((4-methylthiazol-2-yl)methyl)isophthalamide], the pKi on memapsin 2 (20 minutes pre-incubation) was 6.30 to 6.52. In addition, in assay [1] (setting [2]), the pIC50 is above 6.00.

As to `Cc1csc(CN(C)C(=O)c2cc(C(=O)N[C@@H](Cc3ccccc3)[C@H](O)CNCc3cncc(C(C)(C)F)c3)cc(C(F)F)c2)n1` [Compound 293, 5-(difluoromethyl)-N1-((2S,3R)-4-((5-(2-fluoropropan-2-yl)pyridin-3-yl)methylamino)-3-hydroxy-1-phenylbutan-2-yl)-N3-methyl-N3-((4-methylthiazol-2-yl)methyl)isophthalamide], the pKi on memapsin 2 (fluorogenic substrate FS-2) was above 6.52. For the same molecule, in assay [1] (setting [2]), the pIC50 was above 6.00.

Consider `Cc1csc(CN(C)C(=O)c2cccc(C(=O)N[C@@H](Cc3ccccc3)[C@H](O)CNCc3cc(C#N)cc(C(F)(F)F)c3)c2)n1` [Compound 266, N1-((2S,3R)-4-(3-cyano-5-(trifluoromethyl)benzylamino)-3-hydroxy-1-phenylbutan-2-yl)-N3-methyl-N3-((4-methylthiazol-2-yl)methyl)isophthalamide], for which the pKi at memapsin 2 (fluorogenic substrate FS-2) is above 6.52. Further, the pIC50 in assay [1] (setting [2]) was above 6.00.

Take `Cc1csc(CN(C)C(=O)c2cccc(C(=O)N[C@@H](Cc3ccccc3)[C@H](O)CNCc3cc(C(C)C)cc(N(C)C(=O)OCc4ccccc4)c3)c2)n1` [Compound 130, benzyl 3-(((2R,3S)-2-hydroxy-3-(3-(methyl((4-methylthiazol-2-yl)methyl)carbamoyl)benzamido)-4-phenylbutylamino)methyl)-5-isopropylphenyl(methyl)carbamate]: the pKi at memapsin 2 (20 minutes pre-incubation) is 6.30 to 6.52. In assay [1] (setting [2]), the pIC50 is below 5.30.

Consider `COc1cc(C(=O)N[C@@H](Cc2ccccc2)[C@H](O)CNCc2ccnc(C(C)C)c2)cc(C(=O)N(C)Cc2nc(C)cs2)c1` [Compound 53, N1-((2S,3R)-3-hydroxy-4-((2-isopropylpyridin-4-yl)methylamino)-1-phenylbutan-2-yl)-5-methoxy-N3-methyl-N3-((4-methylthiazol-2-yl)methyl)isophthalamide], for which, on memapsin 2 (20 minutes pre-incubation), the pKi is above 6.52. For the same molecule, the pIC50 in assay [1] (setting [2]) is above 6.00.

`Cc1csc(CN(C)C(=O)c2cccc(C(=O)N[C@@H](Cc3ccccc3)[C@H](O)CNCc3cncc(C4CC4)c3)c2)n1` [Compound 30, N1-((2S,3R)-4-((5-cyclopropylpyridin-3-yl)methylamino)-3-hydroxy-1-phenylbutan-2-yl)-N3-methyl-N3-((4-methylthiazol-2-yl)methyl)isophthalamide]: the pKi on memapsin 2 (20 minutes pre-incubation) is above 6.52. Besides, the pIC50 in assay [1] (setting [2]) was above 6.00.

For the molecule `Cc1csc(CN(C)C(=O)c2cccc(C(=O)N[C@@H](Cc3ccccc3)[C@H](O)CNCc3cc(Br)cc(C(F)(F)F)c3)c2)n1` [Compound 265, N1-((2S,3R)-4-(3-bromo-5-(trifluoromethyl)benzylamino)-3-hydroxy-1-phenylbutan-2-yl)-N3-methyl-N3-((4-methylthiazol-2-yl)methyl)isophthalamide], the pKi on memapsin 2 (fluorogenic substrate FS-2) is above 6.52. Further, the negative logarithm of the IC50 (pIC50) in assay [1] (setting [2]) was above 6.00.

Regarding `Cc1csc(CN(C)C(=O)c2cc(C(=O)N[C@@H](Cc3ccccc3)[C@H](O)CNCc3cncc(C(C)(C)C)c3)cc(N(C)C)c2)n1` [Compound 226, N1-((2S,3R)-4-((5-tert-butylpyridin-3-yl)methylamino)-3-hydroxy-1-phenylbutan-2-yl)-5-(dimethylamino)-N3-methyl-N3-((4-methylthiazol-2-yl)methyl)isophthalamide], the pKi at memapsin 2 (fluorogenic substrate FS-2) was above 6.52. The pIC50 in assay [1] (setting [2]) is above 6.00.
